Converted amounts (≈) assume the structure as drawn. Where two headings read alike, the source gives them in different places. Where a SMILES comes first, the peptide text is derived from it. [ ]: non-standard residue; d: D form. Aib = CC(C)(N)C(=O)O
Columns and labels:
[1] = system: S. epidermidis ATCC 12228
Method: (§1) Antimicrobial susceptibility was evaluated by the broth microdilution assay to determine the MIC as already described by Buommino et al.[71] The bacterial suspension in Muller Hinton (MH) at a concentration of 2 × 10^6 cell/mL in the mid-log phase was prepared. Aliquots of 50 μL of the bacterial suspension were added to 50 μL of MH containing serial 2-fold dilutions of the peptides (from 100 to 0.78 μM) that were previously prepared in a 96-well plate. […] Each measurement was performed in triplicate. MICs were obtained from three identical readings of four independent experiments. The antibiofilm activity of the tested peptides was evaluated as reported by Casciaro et al.[72] Microbial culture was grown at 37 °C until it reached an optical density (OD) of 0.8 (λ = 590 nm), and then it was diluted to a cell density of 1 × 10^6 colony-forming units (CFUs)/mL.

S. aureus MDR #4 = system: S. aureus MDR #4
Method: as §1

E. coli ATCC 25922 = system: E. coli ATCC 25922
Method: as §1

A. baumannii ATCC 19606 = system: A. baumannii ATCC 19606
Method: as §1

P. aeruginosa ATCC 25853 = system: P. aeruginosa ATCC 25853
Method: as §1

S. aureus ATCC 25923 = system: S. aureus ATCC 25923
Method: as §1

S. aureus MDR #1 = system: S. aureus MDR #1
Method: as §1

S. aureus MDR #3 = system: S. aureus MDR #3
Method: as §1

S. aureus MDR #2 = system: S. aureus MDR #2
Method: as §1

HaCaT cells = system: HaCaT cells; parameters: method as in PMID 26162435; settings: previously described; cited from earlier work
in vitro = in vitro ADME, bovine; settings: serum
Method: The proteolytic stability of peptide 2 was evaluated in bovine serum (ThermoFisher Scientific, Milan, Italy). Peptide 2 was dissolved in sterile water (200 μM) and incubated with 50% bovine serum at 37 °C. The reaction mixture was incubated at different time intervals (1, 3, 4, 5, 16, and 24 h). An aliquot of the mixture was taken at each pre-established time point and MeCN was added to precipitate serum proteins. Then, the mixture was cooled to 4 °C, centrifuged for 15 min ([…]), and then the supernatant was checked by HPLC using a Phenomenex Jupiter column (4 μm Proteo 90 Å 250 × 21.20 mm) with a linear gradient of MeCN (0.1% TFA) and H2O (0.1% TFA) from 10 to 90% in 20 min and with a flow rate of 1 mL/min.[73] The percentage of the nondegraded peptide was calculated by integrating the peak area of each HPLC chromatogram. Data points are the mean ± SD of three different experiments.

[2] = MDR clinical isolate 13164462, broth microdilution, 16–18 h at 37 °C, three identical readings of four independent experiments
[3] = MDR clinical isolate 13667073, broth microdilution, 16–18 h at 37 °C, three identical readings of four independent experiments

MIC (S. aureus ATCC 25923; ATCC 25923) [µM] | MIC (S. aureus MDR #2; MDR #2) [µM] | MIC (S. aureus MDR #1; MDR #1) [µM] | MIC (S. aureus MDR #3; MDR #3) [µM] | Compound | MIC [1] [µM] | MIC (S. aureus MDR #4) [µM] | MIC (E. coli ATCC 25922) [µM] | MIC (A. baumannii ATCC 19606) [µM] | MIC (P. aeruginosa ATCC 25853) [µM] | MIC (S. aureus MDR #1; [2]) [µM] | MIC (S. aureus MDR #3; [3]) [µM] | lethal dose causing 50% killing (LD50) (HaCaT cells) [µM] | remaining at 1 h, 200 μM (in vitro) [%] | remaining at 3 h, 200 μM (in vitro) [%] | remaining at 4 h, 200 μM (in vitro) [%] | remaining at 5 h, 200 μM (in vitro) [%] | remaining at 16 h, 200 μM (in vitro) [%] | remaining at 24 h, 200 μM (in vitro) [%] | MIC (S. aureus ATCC 25923; broth microdilution, Muller Hinton, 16–18 h at 37 °C, three identical readings of four independent experiments) [µM] | MIC (S. aureus MDR #2; MDR clinical isolate 13165968, broth microdilution, 16–18 h at 37 °C, three identical readings of four independent experiments) [µM]
– | – | – | – | CC[C@H](C)[C@H](NC(=O)CN)C(=O)N[C@@H](Cc1ccccc1)C(=O)N[C@@H](CO)C(=O)N[C@@H](CCCCN)C(=O)N[C@@H](CC(C)C)C(=O)N[C@@H](C)C(=O)NC(C)(C)C(=O)N[C@@H](CCCCN)C(=O)N[C@@H](CCCCN)C(=O)N[C@H](C(=O)N[C@@H](CCCCN)C(=O)N[C@@H](CC(N)=O)C(=O)N[C@@H](CC(C)C)C(=O)N[C@@H](CC(C)C)C(=O)N[C@H](C(=O)N[C@@H](CO)C(=O)NCC(=O)N[C@@H](CC(C)C)C(=O)N[C@@H](CCCCN)C(=O)NCC(N)=O)[C@@H](C)CC)[C@@H](C)CC [peptide 2] (H-GIFSKLA[Aib]KKIKNLLISGLKG-NH2) | 0.78 (≈ 1.73 µg/mL) | 6.25 (≈ 13.8 µg/mL) | 0.78 (≈ 1.73 µg/mL) | 0.78 (≈ 1.73 µg/mL) | 3.12 (≈ 6.9 µg/mL) | 12.5 (≈ 27.7 µg/mL) | 12.5 (≈ 27.7 µg/mL) | – | ~90 | ~75 | ~65 | ~40 | ~40 | ~15 | 12.5 (≈ 27.7 µg/mL) | 12.5 (≈ 27.7 µg/mL)
>100 | >100 | >100 | >100 | CC[C@H](C)[C@H](NC(=O)CN)C(=O)N[C@@H](Cc1ccccc1)C(=O)N[C@@H](CO)C(=O)N[C@@H](CCCCN)C(=O)N[C@@H](CC(C)C)C(=O)N[C@@H](C)C(=O)N1CCC[C@H]1C(=O)N[C@@H](CCCCN)C(=O)N[C@@H](CCCCN)C(=O)N[C@H](C(=O)N[C@@H](CCCCN)C(=O)N[C@@H](CC(N)=O)C(=O)N[C@@H](CC(C)C)C(=O)N[C@@H](CC(C)C)C(=O)N[C@H](C(=O)N[C@@H](CO)C(=O)NCC(=O)N[C@@H](CC(C)C)C(=O)N[C@@H](CCCCN)C(=O)NCC(N)=O)[C@@H](C)CC)[C@@H](C)CC [peptide 3] (H-GIFSKLAPKKIKNLLISGLKG-NH2) | 6.25 (≈ 13.9 µg/mL) | >100 | 3.12 (≈ 6.94 µg/mL) | 1.56 (≈ 3.47 µg/mL) | 6.25 (≈ 13.9 µg/mL) | – | – | – | – | – | – | – | – | – | – | –
>100 | >100 | >100 | >100 | CC[C@H](C)[C@H](NC(=O)CN)C(=O)N[C@@H](Cc1ccccc1)C(=O)N[C@@H](CO)C(=O)N[C@@H](CCCCN)C(=O)N[C@@H](CC(C)C)C(=O)N[C@@H](C)C(=O)N1CCC[C@@H]1C(=O)N[C@@H](CCCCN)C(=O)N[C@@H](CCCCN)C(=O)N[C@H](C(=O)N[C@@H](CCCCN)C(=O)N[C@@H](CC(N)=O)C(=O)N[C@@H](CC(C)C)C(=O)N[C@@H](CC(C)C)C(=O)N[C@H](C(=O)N[C@@H](CO)C(=O)NCC(=O)N[C@@H](CC(C)C)C(=O)N[C@@H](CCCCN)C(=O)NCC(N)=O)[C@@H](C)CC)[C@@H](C)CC [peptide 4] (H-GIFSKLA[dP]KKIKNLLISGLKG-NH2) | 12.5 (≈ 27.8 µg/mL) | >100 | 6.25 (≈ 13.9 µg/mL) | 12.5 (≈ 27.8 µg/mL) | 25 (≈ 55.6 µg/mL) | – | – | – | – | – | – | – | – | – | – | –

Compound | MIC (S. aureus ATCC 25923; ATCC 25923) [µM] | MIC (S. aureus MDR #2; MDR #2) [µM] | MIC (S. aureus MDR #1; MDR #1) [µM] | MIC (S. aureus MDR #3; MDR #3) [µM] | MIC [1] [µM] | MIC (S. aureus MDR #4) [µM] | MIC (E. coli ATCC 25922) [µM] | MIC (A. baumannii ATCC 19606) [µM] | MIC (P. aeruginosa ATCC 25853) [µM] | MIC (S. aureus MDR #1; [2]) [µM] | MIC (S. aureus MDR #3; [3]) [µM] | lethal dose causing 50% killing (LD50) (HaCaT cells) [µM] | remaining at 1 h, 200 μM (in vitro) [%] | remaining at 3 h, 200 μM (in vitro) [%] | remaining at 4 h, 200 μM (in vitro) [%] | remaining at 5 h, 200 μM (in vitro) [%] | remaining at 16 h, 200 μM (in vitro) [%] | remaining at 24 h, 200 μM (in vitro) [%] | MIC (S. aureus ATCC 25923; broth microdilution, Muller Hinton, 16–18 h at 37 °C, three identical readings of four independent experiments) [µM] | MIC (S. aureus MDR #2; MDR clinical isolate 13165968, broth microdilution, 16–18 h at 37 °C, three identical readings of four independent experiments) [µM]
CC[C@H](C)[C@H](NC(=O)CN)C(=O)N[C@@H](Cc1ccccc1)C(=O)N[C@@H](CO)C(=O)N[C@@H](CCCCN)C(=O)N[C@@H](CC(C)C)C(=O)N[C@@H](C)C(=O)NCC(=O)N[C@@H](CCCCN)C(=O)N[C@@H](CCCCN)C(=O)N[C@H](C(=O)N[C@@H](CCCCN)C(=O)N[C@@H](CC(N)=O)C(=O)N[C@@H](CC(C)C)C(=O)N[C@@H](CC(C)C)C(=O)N[C@H](C(=O)N[C@@H](CO)C(=O)NCC(=O)N[C@@H](CC(C)C)C(=O)N[C@@H](CCCCN)C(=O)NCC(N)=O)[C@@H](C)CC)[C@@H](C)CC [peptide 1] (H-GIFSKLAGKKIKNLLISGLKG-NH2) | >100 | 100 (≈ 218 µg/mL) | – | – | 3.12 (≈ 6.82 µg/mL) | >100 | 1.56 (≈ 3.41 µg/mL) | 1.56 (≈ 3.41 µg/mL) | 3.12 (≈ 6.82 µg/mL) | >100 | 100 (≈ 218 µg/mL) | > 50 | – | – | – | – | – | – | – | –

Reference: publication PMC11250030, “Strategic Single-Residue Substitution in the Antimicrobial Peptide Esc(1–21) Confers Activity against Staphylococcus aureus, Including Drug-Resistant and Biofilm Phenotype” (ACS Infectious Diseases, 2024)
